From BindingDB's records for doi:10.1021/ml3003346 (2012)

Assay: Inhibition of EZH2-mediated proliferation of human LNCaP cells after 6 days by chemiluminescence analysis

`Cc1cc(C)c(CNC(=O)c2cc(-c3ccc(N4CCN(C)CC4)nc3)cc3c2cnn3C(C)C)c(=O)[nH]1` showed an IC50 of 4.5 µM.
